Laboratory results as given in the CheMixHub ionic liquid set.

Assay: xn = mol fraction of the nth substance listed

CC[n+]1ccn(C)c1.N#C[N-]C#N + OCC(F)(F)F + CCO
viscosity [mPa·s], 100 kPa
Settings | 298.15 K | 303.15 K | 308.15 K | 313.15 K | 318.15 K
x1 = 0.0355, x2 = 0.8508 | – | 0.27 | 0.22 | 0.16 | 0.15
x1 = 0.0692, x2 = 0.8058 | 0.93 | 0.78 | 0.7 | 0.61 | 0.57
x1 = 0.1059, x2 = 0.7569 | 1.52 | 1.32 | 1.19 | 1.07 | 1
x1 = 0.1341, x2 = 0.7174 | 1.96 | 1.71 | 1.55 | 1.41 | 1.31
x1 = 0.1703, x2 = 0.668 | 2.49 | 2.19 | 1.99 | 1.82 | –
x1 = 0.2026, x2 = 0.6226 | 2.94 | 2.59 | 2.36 | 2.16 | –
x1 = 0.2373, x2 = 0.574 | 3.4 | 3.01 | 2.74 | 2.51 | –
x1 = 0.2705, x2 = 0.5266 | 3.82 | 3.39 | 3.09 | 2.82 | –
x1 = 0.3059, x2 = 0.4761 | 4.24 | 3.77 | 3.43 | 3.14 | –
x1 = 0.3367, x2 = 0.4558 | 4.59 | 4.1 | 3.72 | 3.39 | –
x1 = 0.3741, x2 = 0.4288 | 5 | 4.47 | 4.05 | 3.69 | –
x1 = 0.4093, x2 = 0.4055 | 5.37 | 4.8 | 4.35 | 3.95 | –
x1 = 0.4361, x2 = 0.3894 | 5.63 | 5.04 | 4.56 | 4.14 | –
x1 = 0.4751, x2 = 0.3581 | 6.01 | 5.38 | 4.86 | 4.41 | –
x1 = 0.5091, x2 = 0.3393 | 6.33 | 5.67 | 5.11 | 4.62 | –
x1 = 0.539, x2 = 0.314 | 6.6 | 5.91 | 5.32 | 4.81 | –
x1 = 0.576, x2 = 0.2854 | 6.92 | 6.19 | 5.57 | 5.03 | –
x1 = 0.6046, x2 = 0.2689 | 7.16 | 6.41 | 5.75 | 5.19 | –
x1 = 0.6344, x2 = 0.2517 | 7.42 | 6.62 | 5.94 | 5.36 | –
x1 = 0.673, x2 = 0.2236 | 7.74 | 6.9 | 6.18 | 5.57 | –
x1 = 0.7094, x2 = 0.2009 | 8.04 | 7.15 | 6.4 | 5.77 | –
x1 = 0.7331, x2 = 0.1948 | 8.23 | 7.31 | 6.54 | 5.9 | –
x1 = 0.7722, x2 = 0.1661 | 8.55 | 7.57 | 6.77 | 6.11 | –
x1 = 0.8061, x2 = 0.1434 | 8.84 | 7.79 | 6.97 | 6.29 | –

O=C1CCCCO1 + CCCC[n+]1ccn(C)c1.O=S(=O)([N-]S(=O)(=O)C(F)(F)F)C(F)(F)F
100 kPa, frequency 0.01 MHz
Settings | electrical conductivity [S/m]
293.15 K, x2 = 0.1504 | 0.602
293.15 K, x2 = 0.4006 | 0.589
293.15 K, x2 = 0.8475 | 0.346
298.15 K, x2 = 0.1004 | 0.428
298.15 K, x2 = 0.4006 | 0.665
298.15 K, x2 = 0.5005 | 0.594
298.15 K, x2 = 0.5999 | 0.484
303.15 K, x2 = 0.1004 | 0.471
303.15 K, x2 = 0.1504 | 0.717
308.15 K, x2 = 0.0532 | 0.209
308.15 K, x2 = 0.1004 | 0.512
308.15 K, x2 = 0.2988 | 0.9
308.15 K, x2 = 0.7214 | 0.609
318.15 K, x2 = 0.1999 | 1.04
323.15 K, x2 = 0.0532 | 0.263
323.15 K, x2 = 0.1504 | 1
323.15 K, x2 = 0.1999 | 1.13
323.15 K, x2 = 0.7214 | 0.895

CCCCCCCCn1cc[n+](C)c1.O=S(=O)([N-]S(=O)(=O)C(F)(F)F)C(F)(F)F + c1ccccc1
293 K, 101 kPa
Settings | viscosity [mPa·s]
x1 = 0.2 | 7.34
x1 = 0.6 | 46.2

CN(CCO)CCO + CCCCCC[n+]1ccn(C)c1.F[B-](F)(F)F
101 kPa, x1 = 1
Settings | viscosity [mPa·s]
303.15 K | 57.5
308.15 K | 44.2
313.15 K | 35

O + NCC(=O)O + CCCCCCCCCCCCCCCC[n+]1ccccc1.[Cl-]
Settings | electrical conductivity [S/m]
308.15 K, 101 kPa, x2 = 0, x3 = 0 | 6.7e-05

O + CCCCCCCCCCCCCCCC[n+]1ccccc1.O=C([O-])C(O)c1ccccc1 + NCC(=O)NCC(=O)O
101 kPa, x2 = 0, x3 = 0
Settings | electrical conductivity [S/m]
293.15 K | 0.00012
298.15 K | 0.00015
303.15 K | 0.00016
308.15 K | 0.00017
313.15 K | 0.00019

C[C@H](N)C(=O)O + CCCCCCCCCCCCCCCC[n+]1ccccc1.[Cl-] + O
308.15 K, 101 kPa
Settings | electrical conductivity [S/m]
x1 = 2.018e-05, x2 = 0 | 0.00076
x1 = 2.252e-05, x2 = 0 | 5.6e-05
x1 = 0.0009272, x2 = 0 | 7.5e-05
x1 = 0.001838, x2 = 0 | 0.000251

CCCCCCCCO + CCCCCCCC(=O)[O-].c1c[nH+]c[nH]1
Settings | viscosity [mPa·s]
293.15 K, 101.3 kPa, x1 = 1 | 9.18

CCCC[n+]1ccn(C)c1.F[B-](F)(F)F + CNC(C)=O
Settings | viscosity [mPa·s]
293.15 K, 101 kPa, x1 = 1 | 127.6

CCCC[n+]1ccn(C)c1.F[B-](F)(F)F + CO
101 kPa
Settings | electrical conductivity [S/m] | viscosity [mPa·s]
298.1 K, x1 = 0.007405 | 0.598 | –
298.1 K, x1 = 0.03422 | 1.35 | –
303.15 K, x2 = 0.6004 | – | 5.98
313.15 K, x2 = 0 | – | 53
313.15 K, x2 = 0.1003 | – | 36.1
313.15 K, x2 = 0.2047 | – | 24.26
313.15 K, x2 = 0.7997 | – | 1.778
313.15 K, x2 = 0.9001 | – | 0.993
323.15 K, x2 = 0.1003 | – | 25.42
323.15 K, x2 = 0.6004 | – | 4.07
333.15 K, x2 = 0.3996 | – | 7.23

O + CCCCCCCCCCCCCCCC[n+]1ccccc1.O=C([O-])C(O)c1ccccc1
101 kPa, x2 = 0
Settings | electrical conductivity [S/m]
293.15 K | 0.00012
298.15 K | 0.00015
303.15 K | 0.00016
308.15 K | 0.00017
313.15 K | 0.00019

CCCCCCCCCCCC[N+](C)(C)CC.[Br-] + O
viscosity [mPa·s], 101 kPa
Settings | x1 = 3.604e-05 | x1 = 9.009e-05 | x1 = 0.0001441 | x1 = 0.0001802 | x1 = 0.0002702 | x1 = 0.0003603 | x1 = 0.0004503 | x1 = 0.0005403
298.15 K | 0.895 | 0.903 | 0.913 | 0.916 | 0.929 | 0.938 | 0.947 | 0.956
303.15 K | 0.796 | 0.807 | 0.816 | 0.822 | 0.831 | 0.839 | 0.847 | 0.854
308.15 K | 0.714 | 0.726 | 0.735 | 0.74 | 0.75 | 0.758 | 0.765 | 0.773
313.15 K | 0.647 | 0.658 | 0.666 | 0.673 | 0.682 | 0.688 | 0.693 | 0.699
318.15 K | 0.587 | 0.595 | 0.605 | 0.61 | 0.619 | 0.623 | 0.628 | 0.632

CCCC[n+]1ccn(C)c1.F[B-](F)(F)F + O + NCCO
100 kPa, x1 = 0.2723, x2 = 0.2627
Settings | viscosity [mPa·s]
303 K | 16.89
308 K | 13.81
318 K | 9.78
323 K | 8.34

O + CCCCCCCC[n+]1ccc(C)cc1.[Br-]
100 kPa, frequency 0.003 MHz, x2 = 0
Settings | electrical conductivity [S/m]
288.15 K | 0.0001
308.15 K | 0.00022
